Measurements taken from PMC3310894 (Bioorganic & medicinal chemistry, 2012).

Columns and labels:
[1] = biological target: VEGFR-2 (Homo sapiens, UniProt P35968); conditions: for VEGFR-2 inhibition, fold less active than the standard 23: relative to standard 23
[2] = biological target: EGFR (Homo sapiens, UniProt P00533); conditions: for EGFR inhibition, fold less potent than the standard 20: relative to standard 20 (PD153035)
[3] = biological target: VEGFR-1 (Homo sapiens, UniProt P17948); conditions: for VEGFR-1 inhibition, fold less active than the standard 21: relative to standard 21
Chain of VEGFR-1 (P17948 27-1338): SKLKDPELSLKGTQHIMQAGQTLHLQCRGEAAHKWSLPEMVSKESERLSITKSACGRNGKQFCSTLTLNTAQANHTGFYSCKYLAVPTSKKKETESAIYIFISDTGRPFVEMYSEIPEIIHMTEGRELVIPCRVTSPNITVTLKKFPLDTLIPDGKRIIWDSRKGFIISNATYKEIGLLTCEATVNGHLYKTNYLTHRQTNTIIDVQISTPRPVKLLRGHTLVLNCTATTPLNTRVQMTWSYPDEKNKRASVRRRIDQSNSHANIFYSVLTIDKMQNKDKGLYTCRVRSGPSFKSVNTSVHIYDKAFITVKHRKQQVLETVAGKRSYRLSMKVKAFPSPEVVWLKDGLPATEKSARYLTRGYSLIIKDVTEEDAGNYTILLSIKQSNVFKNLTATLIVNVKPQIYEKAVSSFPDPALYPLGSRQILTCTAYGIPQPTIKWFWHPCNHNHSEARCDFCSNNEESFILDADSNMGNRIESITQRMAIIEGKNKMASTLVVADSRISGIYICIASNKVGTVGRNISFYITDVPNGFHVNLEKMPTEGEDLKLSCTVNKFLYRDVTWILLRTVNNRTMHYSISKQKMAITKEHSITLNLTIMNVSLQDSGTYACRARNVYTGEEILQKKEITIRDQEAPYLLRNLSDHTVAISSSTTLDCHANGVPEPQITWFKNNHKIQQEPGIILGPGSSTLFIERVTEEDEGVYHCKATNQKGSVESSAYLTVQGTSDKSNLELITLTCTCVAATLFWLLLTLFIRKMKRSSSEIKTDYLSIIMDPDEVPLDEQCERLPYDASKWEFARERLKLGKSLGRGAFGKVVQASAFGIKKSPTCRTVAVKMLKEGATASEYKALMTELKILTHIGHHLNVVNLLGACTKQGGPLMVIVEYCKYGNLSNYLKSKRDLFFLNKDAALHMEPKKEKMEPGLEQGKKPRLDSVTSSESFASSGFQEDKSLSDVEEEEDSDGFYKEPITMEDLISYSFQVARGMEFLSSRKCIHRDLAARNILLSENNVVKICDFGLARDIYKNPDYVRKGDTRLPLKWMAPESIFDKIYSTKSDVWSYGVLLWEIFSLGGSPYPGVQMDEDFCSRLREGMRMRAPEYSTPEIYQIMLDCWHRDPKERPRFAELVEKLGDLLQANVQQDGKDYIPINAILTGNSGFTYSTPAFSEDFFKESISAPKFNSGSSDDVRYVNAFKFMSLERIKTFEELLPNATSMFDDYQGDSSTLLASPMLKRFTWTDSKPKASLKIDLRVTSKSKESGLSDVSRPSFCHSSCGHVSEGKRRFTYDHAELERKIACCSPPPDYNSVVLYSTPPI

[4] = tested on: COLO-205 tumor xenografts; test: COLO-205 human metastatic colon mouse xenograft; format: in vivo; conditions: athymic mice, 11a 35 mg/kg, 8 10 mg/kg, three times weekly, IP
[5] = biological target: PDGFR-β (Homo sapiens, UniProt P09619); conditions: for PDGFRβ inhibition, fold less active than the standard 22: relative to standard 22 (AG1295)
Chain of PDGFR-β (P09619 33-1106): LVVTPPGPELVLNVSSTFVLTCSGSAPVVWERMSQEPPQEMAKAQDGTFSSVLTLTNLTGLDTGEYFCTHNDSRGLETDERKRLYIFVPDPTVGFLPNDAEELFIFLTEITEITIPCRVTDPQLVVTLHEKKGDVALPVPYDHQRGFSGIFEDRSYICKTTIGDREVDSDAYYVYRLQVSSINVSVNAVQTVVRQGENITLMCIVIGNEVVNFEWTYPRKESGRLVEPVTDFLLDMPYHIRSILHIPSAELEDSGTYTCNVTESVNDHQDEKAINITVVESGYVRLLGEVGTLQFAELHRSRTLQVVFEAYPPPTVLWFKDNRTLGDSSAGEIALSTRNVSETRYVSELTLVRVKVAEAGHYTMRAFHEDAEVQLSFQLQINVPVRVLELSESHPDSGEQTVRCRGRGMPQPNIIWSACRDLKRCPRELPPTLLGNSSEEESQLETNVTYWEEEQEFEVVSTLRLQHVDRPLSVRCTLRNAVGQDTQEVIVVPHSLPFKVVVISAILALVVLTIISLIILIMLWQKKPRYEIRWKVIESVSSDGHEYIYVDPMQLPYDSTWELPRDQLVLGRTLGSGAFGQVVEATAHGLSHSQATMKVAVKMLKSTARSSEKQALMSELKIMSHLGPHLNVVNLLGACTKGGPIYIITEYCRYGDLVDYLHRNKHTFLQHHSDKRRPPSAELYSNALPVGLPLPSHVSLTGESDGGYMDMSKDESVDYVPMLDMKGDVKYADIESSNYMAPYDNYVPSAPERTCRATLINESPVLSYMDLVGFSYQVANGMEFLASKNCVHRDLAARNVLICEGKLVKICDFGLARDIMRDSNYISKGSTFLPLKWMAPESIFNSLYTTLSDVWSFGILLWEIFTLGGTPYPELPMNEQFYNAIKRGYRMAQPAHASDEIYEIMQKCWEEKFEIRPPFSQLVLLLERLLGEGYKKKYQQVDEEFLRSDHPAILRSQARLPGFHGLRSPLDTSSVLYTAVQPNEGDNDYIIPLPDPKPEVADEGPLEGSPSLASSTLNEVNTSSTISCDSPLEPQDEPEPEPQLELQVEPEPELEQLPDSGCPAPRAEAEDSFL

[6] = mice; 35 mg/kg of 11a, 10 mg/kg of 8

Chain of VEGFR-2 (P35968 20-1356): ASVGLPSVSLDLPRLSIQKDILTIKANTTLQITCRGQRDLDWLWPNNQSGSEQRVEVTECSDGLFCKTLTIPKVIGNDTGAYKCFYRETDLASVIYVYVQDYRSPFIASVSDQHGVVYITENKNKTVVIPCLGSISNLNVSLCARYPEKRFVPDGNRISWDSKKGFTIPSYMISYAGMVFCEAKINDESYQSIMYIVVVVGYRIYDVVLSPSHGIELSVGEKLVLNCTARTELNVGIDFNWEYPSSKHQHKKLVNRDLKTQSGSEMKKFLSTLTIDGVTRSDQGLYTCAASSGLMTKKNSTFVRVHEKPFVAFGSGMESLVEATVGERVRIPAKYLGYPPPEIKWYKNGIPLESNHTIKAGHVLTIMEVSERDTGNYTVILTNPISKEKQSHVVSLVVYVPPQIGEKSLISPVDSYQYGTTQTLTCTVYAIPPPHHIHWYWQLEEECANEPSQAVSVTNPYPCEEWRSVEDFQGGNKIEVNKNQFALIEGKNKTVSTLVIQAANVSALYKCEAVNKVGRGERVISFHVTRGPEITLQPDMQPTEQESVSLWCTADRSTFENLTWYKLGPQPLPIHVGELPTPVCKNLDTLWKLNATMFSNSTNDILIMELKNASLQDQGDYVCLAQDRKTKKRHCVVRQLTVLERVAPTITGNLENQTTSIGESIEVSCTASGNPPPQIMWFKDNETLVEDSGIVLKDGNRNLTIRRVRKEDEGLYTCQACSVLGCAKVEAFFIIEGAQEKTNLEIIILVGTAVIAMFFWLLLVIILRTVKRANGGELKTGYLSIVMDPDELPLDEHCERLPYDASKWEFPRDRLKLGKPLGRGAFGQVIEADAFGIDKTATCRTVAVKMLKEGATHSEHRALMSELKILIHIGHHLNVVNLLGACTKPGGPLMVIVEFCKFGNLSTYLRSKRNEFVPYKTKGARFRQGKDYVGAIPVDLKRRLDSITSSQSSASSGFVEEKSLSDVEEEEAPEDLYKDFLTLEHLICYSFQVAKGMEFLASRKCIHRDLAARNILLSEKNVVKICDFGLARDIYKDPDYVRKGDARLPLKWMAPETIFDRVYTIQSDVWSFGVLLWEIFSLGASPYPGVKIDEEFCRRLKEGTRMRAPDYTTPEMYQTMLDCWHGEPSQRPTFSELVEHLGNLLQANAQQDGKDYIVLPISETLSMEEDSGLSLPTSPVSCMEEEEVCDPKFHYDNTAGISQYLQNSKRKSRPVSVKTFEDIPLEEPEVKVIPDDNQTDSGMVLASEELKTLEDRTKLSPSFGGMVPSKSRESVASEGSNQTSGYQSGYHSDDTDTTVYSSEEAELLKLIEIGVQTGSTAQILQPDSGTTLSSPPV
Chain of EGFR (P00533 25-1210): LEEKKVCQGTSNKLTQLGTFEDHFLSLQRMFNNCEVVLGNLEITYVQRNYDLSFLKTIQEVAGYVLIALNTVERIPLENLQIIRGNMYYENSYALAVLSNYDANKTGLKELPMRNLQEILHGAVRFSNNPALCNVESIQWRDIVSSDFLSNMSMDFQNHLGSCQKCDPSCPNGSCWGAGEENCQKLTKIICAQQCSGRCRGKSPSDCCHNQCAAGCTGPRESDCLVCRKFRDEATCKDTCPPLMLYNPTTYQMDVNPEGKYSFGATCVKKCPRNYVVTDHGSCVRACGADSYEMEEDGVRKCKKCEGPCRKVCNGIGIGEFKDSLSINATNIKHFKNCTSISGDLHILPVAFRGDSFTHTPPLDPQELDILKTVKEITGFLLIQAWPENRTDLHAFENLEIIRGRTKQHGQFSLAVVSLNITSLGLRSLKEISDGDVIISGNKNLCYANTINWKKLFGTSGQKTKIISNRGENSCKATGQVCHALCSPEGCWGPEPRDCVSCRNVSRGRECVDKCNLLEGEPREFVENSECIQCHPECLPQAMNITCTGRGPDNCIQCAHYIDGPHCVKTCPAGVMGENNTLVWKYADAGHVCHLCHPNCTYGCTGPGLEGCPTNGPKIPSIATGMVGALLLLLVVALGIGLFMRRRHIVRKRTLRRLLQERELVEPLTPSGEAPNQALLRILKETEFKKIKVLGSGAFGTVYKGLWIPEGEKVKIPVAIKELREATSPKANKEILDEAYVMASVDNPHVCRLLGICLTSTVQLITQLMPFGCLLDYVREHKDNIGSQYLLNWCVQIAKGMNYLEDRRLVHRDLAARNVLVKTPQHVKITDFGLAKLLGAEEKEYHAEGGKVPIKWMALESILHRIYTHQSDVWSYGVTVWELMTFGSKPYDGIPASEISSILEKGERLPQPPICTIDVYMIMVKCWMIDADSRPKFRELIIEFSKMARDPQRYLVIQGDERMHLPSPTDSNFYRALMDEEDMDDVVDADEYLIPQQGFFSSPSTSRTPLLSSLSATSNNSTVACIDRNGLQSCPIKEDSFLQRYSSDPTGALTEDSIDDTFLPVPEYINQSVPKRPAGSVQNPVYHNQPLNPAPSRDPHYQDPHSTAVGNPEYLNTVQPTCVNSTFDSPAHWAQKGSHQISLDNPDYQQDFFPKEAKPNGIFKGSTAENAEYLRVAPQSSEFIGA

| EGFR inhibition, result in words [2] | SMILES | VEGFR-2 inhibition, fold less active than the standard 23 [1] | VEGFR-1 inhibition, fold less active than the standard 21 [3] | other results |
| --- | --- | --- | --- | --- |
| 2-digit micromolar inhibition | COc1ccc(OC)c(Cn2ccc3c(Nc4cccc(Br)c4)nc(N)nc32)c1 [Compound 13a, N^4-(3-bromophenyl)-7-(2,5-dimethoxybenzyl)-7H-pyrrolo[2,3-d]pyrimidine-2,4-diamine] | – | – | VEGFR-2 inhibition, result in words [1]: inactive even at 200 μM; EGFR inhibition, fold less potent than the standard 20 [2]: 346 fold |
| abolished | Nc1nc(Nc2cccc(Br)c2)c2ccn(Cc3ccc(-c4ccccc4)cc3)c2n1 [Compound 18a, 7-Biphenyl-4-ylmethyl-N^4-(3-bromo-phenyl)-7H-pyrrolo[2,3-d]pyrimidine-2,4-diamine] | – | – | VEGFR-1 inhibition, result in words [3]: inactive at a concentration of 200 μM |
| – | Nc1nc(Nc2cccc(Br)c2)c2ccn(Cc3ccccc3Cl)c2n1 [Compound 11a, N^4-(3-bromophenyl)-7-(2-chlorobenzyl)-7H-pyrrolo[2,3-d]pyrimidine-2,4-diamine] | 1.6 fold | 7 fold | numbers of COLO-205 metastases to the liver [4]: significantly reduced numbers; primary tumor growth rate compared to the control [4]: significant decreases; primary tumor vascularity compared to control animals [4]: significant decrease; PDGFRβ inhibition, result in words [5]: single digit micromolar concentrations; PDGFRβ inhibition, fold more active than parent regioisomer 11 ([5]; relative to 6-substituted regioisomer 11): > 33 fold; toxicity in six week toxicity determination study [6]: no overt toxicity |
| – | Nc1nc(Nc2cccc(Br)c2)c2ccn(Cc3ccccc3)c2n1 [Compound 9a, 7-benzyl-N^4-(3-bromophenyl)-7H-pyrrolo[2,3-d]pyrimidine-2,4-diamine] | 2 fold | 5.6 fold | EGFR inhibition, fold less potent than the standard 20 [2]: about 800 fold |
| inactivity | COc1cc(Cn2ccc3c(Nc4cccc(Br)c4)nc(N)nc32)cc(OC)c1OC [Compound 19a, N^4-(3-Bromo-phenyl)-7-(3,4,5-trimethoxy-benzyl)-7H-pyrrolo[2,3-d]pyrimidine-2,4-diamine] | 2 fold | about 8.8 fold | PDGFRβ inhibition, result in words [5]: single digit micromolar concentrations |
| abolished | Nc1nc(Nc2cccc(Br)c2)c2ccn(Cc3ccc4ccccc4c3)c2n1 [Compound 17a, N^4-(3-bromophenyl)-7-(2-naphthylmethyl)-7H-pyrrolo[2,3-d]pyrimidine-2,4-diamine] | 2 fold | 2.8 fold | PDGFRβ inhibition, fold less active than the standard 22 [5]: 34 fold |
| – | Cc1[nH]c(/C=C2\C(=O)Nc3ccccc32)c(C)c1CCC(=O)O [Compound 8, TSU-68, reference compound] | – | – | primary tumor growth rate compared to the control [4]: significant decreases; primary tumor vascularity compared to control animals [4]: significant decrease; toxicity in six week toxicity determination study [6]: no overt toxicity |

| SMILES | EGFR inhibition, result in words [2] | VEGFR-2 inhibition, fold less active than the standard 23 [1] | VEGFR-1 inhibition, fold less active than the standard 21 [3] | other results |
| --- | --- | --- | --- | --- |
| Nc1nc(Nc2cccc(Br)c2)c2ccn(Cc3ccc(Cl)cc3Cl)c2n1 [Compound 14a, N^4-(3-bromophenyl)-7-(2,4-dichlorobenzyl)-7H-pyrrolo[2,3-d]pyrimidine-2,4-diamine] | inactivity | – | – | VEGFR-2 inhibition, result in words [1]: inactive |
| Nc1nc(Nc2cccc(Br)c2)c2ccn(Cc3ccc(Cl)c(Cl)c3)c2n1 [Compound 15a, N^4-(3-bromophenyl)-7-(3,4-dichlorobenzyl)-7H-pyrrolo[2,3-d]pyrimidine-2,4-diamine] | inactivity | 6 fold | 7 fold | – |
| Nc1nc(Nc2cccc(Br)c2)c2ccn(Cc3cccc4ccccc34)c2n1 [Compound 16a, N^4-(3-bromophenyl)-7-(1-naphthylmethyl)-7H-pyrrolo[2,3-d]pyrimidine-2,4-diamine] | abolished | 1.4 fold | 8.4 fold | PDGFRβ inhibition, fold less active than the standard 22 [5]: 20 fold; VEGFR-2 inhibition, fold less active than parent regioisomer 16 ([1]; 16a versus 16): 3 fold |
